From patent publication US9839618B2, “Compositions and methods relating to proliferative diseases” (The Penn State Research Foundation, priority 2010, dated 2017)

Test system: UACC 903 melanoma cells
Assay: Natural product library NPL-480 primary screen, MTS viability
Type: cell-based
Details: Homo sapiens, 5 μmol/L, 24 hours, MTS assay, read-out: decrease of cell viability
Experimental: Natural product library NPL-480 (from TimTec Inc., Newark, Del.) consisting of 480 compounds derived from plants, animal, bacteria and fungus is screened using MTS assay to identify agents reducing cell growth of melanoma cells. Compounds of the NPL-480 library that are supplied as powders or oils are dissolved in DMSO to a stock concentration of 10 mM and stored at −20° C. DMSO concentrations in the reaction mixture are controlled to not exceed 0.5% (vol/vol). 5×10^3 UACC 903 melanoma cells are plated in 96 well plates for 24 hours followed by treatment with each compound at 5 μmol/L for 24 hours. Viability is measured using the MTS assay as described in Sharma, A. et al., Clin Cancer Res, 2009, 15:1674-85; and Madhunapantula, S. V. et al., Mol Cancer Ther, 2008, 7:1297-308. This primary screen identified 12 compounds effective to decrease melanoma cells viability by ˜50% or more.

## CC(C)c1ccc2c(c1)CCC1[C@](C)(CN)CCC[C@]21C (stereo partly drawn) [Leelamine, [(1R,4aS)-1,4a-dimethyl-7-(propan-2-yl)-1,2,3,4,4a,9,10,10a-octahydrophenanthren-1-yl]methanamine]
  cytotoxicity at 5 µM: ~95%
